According to patent US8436178B2, “Imidazoquinolines with immuno-modulating properties” (AstraZeneca AB, priority 2007, dated 2013):
Counter-ions that a name gives are not always drawn.

These compounds were tested against T1, human TLR7 (Homo sapiens, UniProt Q9NYK1) (assay: Human TLR7 assay (SEAP reporter in HEK293 cells)). Details: SEAP induction in HEK293 cells expressing human TLR7, overnight incubation at 37° C., 0.1% DMSO.
T1 construct: expressed in transfected cells; host or cells: HEK293 cell line stably expressing the pNiFty2-SEAP reporter plasmid; TLR7 in pUNO vector, blasticidin selection
T1 sequence (Q9NYK1 27-1049): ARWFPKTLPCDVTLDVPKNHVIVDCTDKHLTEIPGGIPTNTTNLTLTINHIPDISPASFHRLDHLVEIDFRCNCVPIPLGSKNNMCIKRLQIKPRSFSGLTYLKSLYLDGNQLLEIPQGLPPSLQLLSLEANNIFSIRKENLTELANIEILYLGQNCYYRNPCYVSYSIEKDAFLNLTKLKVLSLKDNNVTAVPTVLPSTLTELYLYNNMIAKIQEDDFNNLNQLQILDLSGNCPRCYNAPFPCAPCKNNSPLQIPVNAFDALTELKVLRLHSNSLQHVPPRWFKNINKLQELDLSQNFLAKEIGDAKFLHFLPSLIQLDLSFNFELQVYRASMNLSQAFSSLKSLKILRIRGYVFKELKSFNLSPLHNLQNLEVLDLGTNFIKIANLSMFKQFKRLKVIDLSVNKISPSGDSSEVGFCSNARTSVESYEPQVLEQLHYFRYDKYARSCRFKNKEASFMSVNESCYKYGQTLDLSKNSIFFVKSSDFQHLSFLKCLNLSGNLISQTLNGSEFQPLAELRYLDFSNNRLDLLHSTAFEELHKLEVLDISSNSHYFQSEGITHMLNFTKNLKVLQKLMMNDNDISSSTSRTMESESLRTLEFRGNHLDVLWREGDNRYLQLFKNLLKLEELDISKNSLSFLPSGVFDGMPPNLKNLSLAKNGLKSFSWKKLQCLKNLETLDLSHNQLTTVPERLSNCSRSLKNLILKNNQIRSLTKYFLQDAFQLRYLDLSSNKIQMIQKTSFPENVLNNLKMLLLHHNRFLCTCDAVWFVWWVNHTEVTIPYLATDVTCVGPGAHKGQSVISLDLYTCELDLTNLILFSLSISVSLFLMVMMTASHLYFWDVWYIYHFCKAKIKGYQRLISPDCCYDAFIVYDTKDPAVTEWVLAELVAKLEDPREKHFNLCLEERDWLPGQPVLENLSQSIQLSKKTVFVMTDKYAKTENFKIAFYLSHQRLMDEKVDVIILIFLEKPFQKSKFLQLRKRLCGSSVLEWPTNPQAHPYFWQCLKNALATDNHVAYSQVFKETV
Type: cell-based
Description: The most common variant sequence of human TLR7 (represented by the EMBL sequence AF240467) was cloned into the mammalian cell expression vector pUNO and transfected into a HEK293 cell line already stably expressing the pNiFty2-SEAP reporter plasmid; integration of the reporter gene was maintained by selection with the antibiotic zeocin. Transfectants with stable TLR7 expression were selected using the antibiotic blasticidin. In this reporter cell-line, expression of secreted alkaline phosphatase (SEAP) is controlled by an NFkB/ELAM-1 composite promoter comprising five NFkB sites combined with the proximal ELAM-1 promoter. TLR signaling leads to the translocation of NFkB and activation of the promoter results in expression of the SEAP gene. TLR7-specific activation was assessed by determining the level of SEAP produced following overnight incubation of the cells at 37° C. with the standard compound in the presence of 0.1% (v/v) dimethylsulfoxide (DMSO). Concentration dependent induction of SEAP production by compounds was expressed as the concentration of compound which produced half of the maximal level of SEAP induction for that compound (pEC50).

Row | Compound | EC50
1 | COCCc1nc2c(N)nc3ccccc3c2n1CCCN(Cc1ccc(CC(=O)OC)cc1)C(=O)CN1CCCCC1 [Example 29, Methyl 2-(4-((N-(3-(4-amino-2-(2-methoxyethyl)-1H-imidazo[4,5-c]quinolin-1-yl)propyl)-2-(piperidin-1-yl)acetamido)methyl)phenyl)acetate] | 100 nM
2 | COCCc1nc2c(N)nc3ccccc3c2n1CCCN(Cc1ccc(CC(=O)OC)cc1)C(=O)CN(C)C [Example 30, Methyl 2-(4-((N-(3-(4-amino-2-(2-methoxyethyl)-1H-imidazo[4,5-c]quinolin-1-yl)propyl)-2-(dimethylamino)acetamido)methyl)phenyl)acetate] | 200 nM
3 | COCCc1nc2c(N)nc3ccccc3c2n1CCCN(Cc1ccc(CC(=O)OC)cc1)C(=O)CN(C)CCOC [Example 32, Methyl 2-(4-((N-(3-(4-amino-2-(2-methoxyethyl)-1H-imidazo[4,5-c]quinolin-1-yl)propyl)-2-((2-methoxyethyl)(methyl)amino)acetamido)methyl)phenyl)acetate] | 158 nM
4 | COCCc1nc2c(N)nc3ccccc3c2n1CCCN(CCCN1CCOCC1)Cc1ccc(CC(=O)OC)cc1 [Example 34, Methyl 2-(4-(((3-(4-amino-2-(2-methoxyethyl)-1H-imidazo[4,5-c]quinolin-1-yl)propyl)(3-morpholinopropyl)amino)methyl)phenyl)acetate] | 316 nM
5 | CCCCc1nc2c(N)nc3ccccc3c2n1CCCN(Cc1cccc(CC(=O)OC)c1)C(=O)CN(CCC)CCC [Example 41] | 79.4 nM
6 | CCCCc1nc2c(N)nc3ccccc3c2n1CCCN(Cc1cccc(CC(=O)OC)c1)C(=O)CN(C)C1CCOCC1 [Example 43, Methyl 2-(3-((N-(3-(4-amino-2-butyl-1H-imidazo[4,5-c]quinolin-1-yl)propyl)-2-(methyl(tetrahydro-2H-pyran-4-yl)amino)acetamido)methyl)phenyl)acetate] | 126 nM
7 | CCCCc1nc2c(N)nc3ccccc3c2n1CCCN(Cc1cccc(CC(=O)OC)c1)C(=O)CN1CCC1 [Example 44, Methyl 2-(3-((N-(3-(4-amino-2-butyl-1H-imidazo[4,5-c]quinolin-1-yl)propyl)-2-(azetidin-1-yl)acetamido)methyl)phenyl)acetate] | 251 nM
8 | CCCCc1nc2c(N)nc3ccccc3c2n1CCCN(Cc1cccc(CC(=O)OC)c1)C(=O)CN1CCCC1 [Example 46, Methyl 2-(3-((N-(3-(4-amino-2-butyl-1H-imidazo[4,5-c]quinolin-1-yl)propyl)-2-(pyrrolidin-1-yl)acetamido)methyl)phenyl)acetate] | 63.1 nM
9 | CCCCc1nc2c(N)nc3ccccc3c2n1CCCN(Cc1cccc(CC(=O)OC)c1)C(=O)CN1CCC(O)C1 (stereo not drawn) [Example 47, Methyl 2-(3-((N-(3-(4-amino-2-butyl-1H-imidazo[4,5-c]quinolin-1-yl)propyl)-2-(3-hydroxypyrrolidin-1-yl)acetamido)methyl)phenyl)acetate] | 398 nM
10 | CCCCc1nc2c(N)nc3ccccc3c2n1CCCN(Cc1cccc(CC(=O)OC)c1)C(=O)CN1CC[C@@H](O)C1 [Example 48, (R)-Methyl 2-(3-((N-(3-(4-amino-2-butyl-1H-imidazo[4,5-c]quinolin-1-yl)propyl)-2-(3-hydroxypyrrolidin-1-yl)acetamido)methyl)phenyl)acetate] | 398 nM
11 | CCCCc1nc2c(N)nc3ccccc3c2n1CCCN(Cc1cccc(CC(=O)OC)c1)C(=O)CN1CCC(O)CC1 [Example 50, Methyl 2-(3-((N-(3-(4-amino-2-butyl-1H-imidazo[4,5-c]quinolin-1-yl)propyl)-2-(4-hydroxypiperidin-1-yl)acetamido)methyl)phenyl)acetate] | 501 nM
12 | CCCCc1nc2c(N)nc3ccccc3c2n1CCCN(Cc1cccc(CC(=O)OC)c1)C(=O)CN1CCC(OC)CC1 [Example 51, Methyl 2-(3-((N-(3-(4-amino-2-butyl-1H-imidazo[4,5-c]quinolin-1-yl)propyl)-2-(4-methoxypiperidin-1-yl)acetamido)methyl)phenyl)acetate] | 200 nM
13 | CCCCc1nc2c(N)nc3ccccc3c2n1CCCN(Cc1cccc(CC(=O)OC)c1)C(=O)CN1CCC(C(=O)N(C)C)CC1 [Example 52, Methyl 2-(3-((N-(3-(4-amino-2-butyl-1H-imidazo[4,5-c]quinolin-1-yl)propyl)-2-(4-(dimethylcarbamoyl)piperidin-1-yl)acetamido)methyl)phenyl)acetate] | 631 nM
14 | CCCCc1nc2c(N)nc3ccccc3c2n1CCCN(Cc1cccc(CC(=O)OC)c1)C(=O)CN1CCOCC1 [Example 53, Methyl 2-(3-((N-(3-(4-amino-2-butyl-1H-imidazo[4,5-c]quinolin-1-yl)propyl)-2-morpholinoacetamido)methyl)phenyl)acetate] | 794 nM

Continued, values first:

Row | EC50 | Compound
15 | 200 nM | CCCCc1nc2c(N)nc3ccccc3c2n1CCCN(Cc1ccc(CC(=O)OC)cc1)C(=O)CN1CCC(C(=O)OC)CC1 [Example 28, Methyl 1-(2-((3-(4-amino-2-butyl-1H-imidazo[4,5-c]quinolin-1-yl)propyl)(4-(2-methoxy-2-oxoethyl)benzyl)amino)-2-oxoethyl)piperidine-4-carboxylate]
16 | 158 nM | COCCc1nc2c(N)nc3ccccc3c2n1CCCN(Cc1cccc(CC(=O)OC)c1)C(=O)CN1CCCCC1 [Example 31, Methyl 2-(3-((N-(3-(4-amino-2-(2-methoxyethyl)-1H-imidazo[4,5-c]quinolin-1-yl)propyl)-2-(piperidin-1-yl)acetamido)methyl)phenyl)acetate saccharin salt]
17 | 158 nM | COCCc1nc2c(N)nc3ccccc3c2n1CCCN(Cc1ccc(CC(=O)OC)cc1)C(=O)CCN1CCCCC1 [Example 33, Methyl 2-(4-((N-(3-(4-amino-2-(2-methoxyethyl)-1H-imidazo[4,5-c]quinolin-1-yl)propyl)-3-(piperidin-1-yl)propanamido)methyl)phenyl)acetate]
18 | 398 nM | COCCc1nc2c(N)nc3ccccc3c2n1CCCN(Cc1ccc(CC(=O)OC)cc1)C(=O)CN1CCCC1 [Example 37, Methyl 2-(4-((N-(3-(4-amino-2-(2-methoxyethyl)-1H-imidazo[4,5-c]quinolin-1-yl)propyl)-2-(pyrrolidin-1-yl)acetamido)methyl)phenyl)acetate disaccharin salt]
19 | 1580 nM | COCCc1nc2c(N)nc3ccccc3c2n1CCCN(Cc1ccc(CC(=O)OC)cc1)C(=O)CN(C)CCO [Example 38, Methyl 2-(4-((N-(3-(4-amino-2-(2-methoxyethyl)-1H-imidazo[4,5-c]quinolin-1-yl)propyl)-2-((2-hydroxyethyl)(methyl)amino)acetamido)methyl)phenyl)acetate disaccharin salt]
20 | 158 nM | CCCCc1nc2c(N)nc3ccccc3c2n1CCCN(Cc1cccc(CC(=O)OC)c1)C(=O)CN(C)CCOC [Example 39, Methyl 2-(3-((N-(3-(4-amino-2-butyl-1H-imidazo[4,5-c]quinolin-1-yl)propyl)-2-((2-methoxyethyl)(methyl)amino)acetamido)methyl)phenyl)acetate]
21 | 126 nM | CCCCc1nc2c(N)nc3ccccc3c2n1CCCN(Cc1cccc(CC(=O)OC)c1)C(=O)CN(C)CCCC [Example 40, Methyl 2-(3-((N-(3-(4-amino-2-butyl-1H-imidazo[4,5-c]quinolin-1-yl)propyl)-2-(butyl(methyl)amino)acetamido)methyl)phenyl)acetate]
22 | 1580 nM | CCCCc1nc2c(N)nc3ccccc3c2n1CCCN(Cc1cccc(CC(=O)OC)c1)C(=O)CN(CCO)CCO [Example 42, Methyl 2-(3-((N-(3-(4-amino-2-butyl-1H-imidazo[4,5-c]quinolin-1-yl)propyl)-2-(bis(2-hydroxyethyl)amino)acetamido)methyl)phenyl)acetate]
23 | 1580 nM | CCCCc1nc2c(N)nc3ccccc3c2n1CCCN(Cc1cccc(CC(=O)OC)c1)C(=O)CN1CC(O)C1 [Example 45, Methyl 2-(3-((N-(3-(4-amino-2-butyl-1H-imidazo[4,5-c]quinolin-1-yl)propyl)-2-(3-hydroxyazetidin-1-yl)acetamido)methyl)phenyl)acetate]
24 | 79.4 nM | CCCCc1nc2c(N)nc3ccccc3c2n1CCCN(Cc1cccc(CC(=O)OC)c1)C(=O)CN1CCCCC1 [Example 49, Methyl 2-(3-((N-(3-(4-amino-2-butyl-1H-imidazo[4,5-c]quinolin-1-yl)propyl)-2-(piperidin-1-yl)acetamido)methyl)phenyl)acetate]
